# From patent US20260007673A1, “ROCK2 INHIBITORS FOR THE TREATMENT OF VIRAL INFECTIONS” (GRAVITON BIOSCIENCE BV, priority 2022, published 2026)
# Entries after “also recorded” stand apart in the source; their conditions may differ.
# How the values were obtained:
# SARS-CoV-2 [1] = experiment: In vitro SARS-CoV-2 model in immortalized human airway epithelial cells (Calu-3), viral load by qRT-PCR; type: cell-based; details: for inhibition of viral replication (viral titers): 10 μM
# Method: A 50 mM stock solution of Compound 2 (in DMSO) was diluted using PBS to concentrations of 100, 75, 50, 25, 10, 5, 1, 0.3, 0.1, and 0.03 μM. About 30,000 immortalized human airway epithelial cells (Calu-3) (see, FIG. 1-10) or primary human airway epithelial cells (Normal Human Small Airway Epithelial Cells; Sigma) (see, FIGS. 11-12) were grown to about 100,000 cells per well in a 96-well format. The cells were challenged with 10^2 or 10^3 PFU SARS-CoV-2 (standard CDC SARS-CoV-2 strain) in triplicate and incubated for 6 h at 37° C., followed by washing. The cells were then treated with Compound 2 or negative control by adding 10 μL of a solution of Compound 2 (0.03-100 μM) or negative control solution (DMSO in PBS) in triplicate and incubating for 2 h at 37° C. A positive control consisted of remdesivir (RDV; 10 μM). An additional control (3 wells) was treated with Compound 2 at the highest concentration, but not challenged with virus. The cells were maintained until the second endpoint readout at 48 h (the first occurring at 24 h post-infection). In some instances, the cellular media was replaced 24 h after infection with untreated culture medium (“unmediated medium”) or culture medium containing the positive control (RDV) or Compound 2 (“mediated medium”), see, FIG. 10.
# Viral infection/load was analyzed by qPCR (qRT-PCR). RNA from cells was extracted with TRIzol reagent (Thermo Fisher) according to manufacturer's instructions. Viral or host RNA levels in the supernatant were determined using the TaqPath™ 1-Step RT-qPCR Master Mix (Thermo Fisher) on a CFX Connect Real-Time System (Bio-Rad) instrument using the following primers: Fwd: 5′-[…]-3′; Rev. 5′-[…]-3′.
# Datasets were analyzed and plotted in GraphPad Prism (version 9.0.2). Analytic simulations of dose-response curves using the median-effect principle and mass-action Law were carried out using CompuSyn (https://www.combosyn.com/).
# SARS-CoV-2 [2] = experiment: In vitro SARS-CoV-2 model in primary human airway epithelial cells, viral load by qRT-PCR; type: cell-based; details: 5 μM and 25 μM, read at 24 and 48 hours (FIGS. 11-12)
# Method: A 50 mM stock solution of Compound 2 (in DMSO) was diluted using PBS to concentrations of 100, 75, 50, 25, 10, 5, 1, 0.3, 0.1, and 0.03 μM. About 30,000 immortalized human airway epithelial cells (Calu-3) (see, FIG. 1-10) or primary human airway epithelial cells (Normal Human Small Airway Epithelial Cells; Sigma) (see, FIGS. 11-12) were grown to about 100,000 cells per well in a 96-well format. The cells were challenged with 10^2 or 10^3 PFU SARS-CoV-2 (standard CDC SARS-CoV-2 strain) in triplicate and incubated for 6 h at 37° C., followed by washing. The cells were then treated with Compound 2 or negative control by adding 10 μL of a solution of Compound 2 (0.03-100 μM) or negative control solution (DMSO in PBS) in triplicate and incubating for 2 h at 37° C. A positive control consisted of remdesivir (RDV; 10 μM). […] The cells were maintained until the second endpoint readout at 48 h (the first occurring at 24 h post-infection). […]
# Viral infection/load was analyzed by qPCR (qRT-PCR). […] Viral or host RNA levels in the supernatant were determined using the TaqPath™ 1-Step RT-qPCR Master Mix (Thermo Fisher) on a CFX Connect Real-Time System (Bio-Rad) instrument using the following primers: Fwd: 5′-[…]-3′; Rev. […]
# Datasets were analyzed and plotted in GraphPad Prism (version 9.0.2). […]
# Calu-3 cells = experiment: Cellular toxicity: LDH assay; type: cell-based, human; details: 0.03-100 μM, LDH assay at 48 h (FIGS. 4-5)
# Method: The toxicity of Compound 2 was measured at concentrations of 0.1, 0.3, 1, 10, 25, 50, 75, and 100 μM in Calu-3 cells by LDH ([…] dehydrogenase) assay (Clontech) according to the manufacturer's instructions. A positive control consisted of saponin (0.5%). A negative control consisted of DMSO (0.2%).
# [3] = system: SARS-CoV-2 2019-nCoV/USA-WA1/2020 strain; experiment: Lung viral load by qPCR in infected human ACE2 transgenic mice; type: in vivo; details: mice infected with 100 or 1000 pfu; 300 mg/kg daily oral gavage; 7, 14, 21 days; vs vehicle and remdesivir (FIGS. 13-14)
# [4] = system: SARS-CoV-2 infected lung tissue; experiment: Lung fibrosis by H&E staining in infected human ACE2 transgenic mice; type: in vivo; details: infected mouse lung tissue 7, 14, 21 days after infection; vs vehicle (FIG. 16)
# SARS-CoV-2 [5] = experiment: 7-day clinical trial in patients with mild to moderate COVID-19; type: in vivo
smiles,measurement,setting,value
"Cn1c(C(=O)N2CC(F)(F)C2)cc2ccc(-c3nccc(Nc4ccc(-c5cn[nH]c5)cc4)n3)cc21 [Compound 2, (6-(4-((4-(1H-pyrazol-4-yl)phenyl)amino)pyrimidin-2-yl)-1-methyl-1H-indol-2-yl)(3,3-difluoroazetidin-1-yl)methanone]",inhibition of viral replication (viral titers),"SARS-CoV-2 [1]; Calu-3, read at 24 and 48 hours, compared to negative control (0.1% DMSO) and positive control (RDV) (FIGS. 6-7)",inhibiting viral replication
same,inhibition of viral replication (viral titers),"SARS-CoV-2 [1]; Calu-3, read at 24 and 48 hours, treated 0, 2, 4, 8 h post-infection, compared to control (FIGS. 1-3)",inhibiting viral replication
same,dose response of inhibition of viral replication,"SARS-CoV-2 [1]; Calu-3, 1, 5, 10 and 25 μM, read at 24 and 48 hours, given 0-10 h after infection (FIGS. 8A-9F)",Dose responses were observed at all time points
same,viral concentration after repeat dosing,"SARS-CoV-2 [1]; Calu-3, 48 h after infection, medium containing compound replenished at 24 h (FIG. 10)",further decreased viral concentration
same,viral titers of SARS-CoV-2,"SARS-CoV-2 [1]; immortalized human airway epithelial cells infected with SARS-CoV-2, FIGS. 1-12",substantially reduce viral titers
same,efficacy against SARS-CoV-2 infection (viral concentration),SARS-CoV-2 [2],efficacy at 5 μM and 25 μM concentrations
same,cellular toxicity by LDH,Calu-3 cells,low cellular toxicity
same,viral load in the lung,[3],significantly reduced viral load
same,pulmonary fibrosis (histology),[4],reducing pulmonary fibrosis; also recorded: reduces lung fibrosis
same,clinical efficacy in treating mild to moderate COVID-19,SARS-CoV-2 [5]; 200 mg or 400 mg once daily for 7 days plus standard of care (FIGS. 17-20),clinical efficacy
same,"viral titers, as negative conversion rates of SARS-CoV-2 nucleic acid detection","SARS-CoV-2 [5]; 200 mg or 400 mg once daily for 7 days, relative to Control (FIG. 18)",lower viral titers
same,"inflammation, as levels of interleukin 6",SARS-CoV-2 [5]; 200 mg/day and 400 mg/day (FIG. 19),reduced levels of inflammation
same,"inflammation, as levels of C-reactive protein (CRP)",SARS-CoV-2 [5]; 200 mg/day and 400 mg/day (FIG. 20),reduced levels of inflammation
same,relief rate of sustained clinical symptoms,"SARS-CoV-2 [5]; 400 mg once daily for 7 days, relative to Control and to 200 mg (FIG. 17)",substantial improvement
